Experimental data reported in patent publication US8304190B2, “Pharmacogenomics of blood pressure lowering agents” (Royal College of Surgeons in Ireland, priority 2005, dated 2012).
“Also recorded” adds a separate entry of the source. Like-named read-outs stand apart in the source and are kept apart here. Each block holds one molecule with its values, some of them ahead of it.

Key:
[1] = system: plasma renin; conditions: aliskiren 160-640 mg; unstimulated plasma renin 10-20 pg/ml; cited from earlier work
[2] = system: hypertensive patients; experiment: Clinic blood pressure, change from baseline with study treatment, by renin −5312 C/T genotype; format: in vivo, human; conditions: for BP lowering by −5312 C/T genotype: clinic and ambulatory BP, T allele carriers versus CC homozygotes
Description: Tables 2 and 3 show baseline clinic and ambulatory blood pressures, and the changes from baseline with study treatment.

[3] = clinical; conditions: human, plasma, Plasma aliskiren on treatment (trough), after four weeks, median (interquartile range)
[4] = for Plasma aliskiren on treatment (trough): Aliskiren 300 mg, after four weeks, median (interquartile range)
[5] = target: T1, plasma renin activity (Homo sapiens, UniProt P00797); experiment: Trough plasma renin activity (PRA) after four weeks of treatment; conditions: after four weeks, median (interquartile range)
T1 sequence (P00797 67-406): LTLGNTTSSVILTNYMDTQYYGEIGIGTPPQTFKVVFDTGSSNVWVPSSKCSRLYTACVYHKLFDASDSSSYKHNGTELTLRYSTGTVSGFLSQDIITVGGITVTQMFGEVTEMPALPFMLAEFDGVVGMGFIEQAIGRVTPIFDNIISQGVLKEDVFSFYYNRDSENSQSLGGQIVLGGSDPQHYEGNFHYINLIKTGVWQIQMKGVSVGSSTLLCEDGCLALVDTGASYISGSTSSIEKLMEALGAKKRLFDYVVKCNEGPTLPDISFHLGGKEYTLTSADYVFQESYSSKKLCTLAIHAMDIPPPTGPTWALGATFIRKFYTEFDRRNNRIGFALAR

[6] = system: plasma renin activity; experiment: as above; conditions: for Effect of therapy on PRA: trough PRA after four weeks of treatment; for PRA Percentage Change / PRA on treatment (trough): Losartan 100 mg, after four weeks, median (interquartile range)
[7] = Ren CC homozygotes, Aliskiren 37.5 mg
[8] = Ren CC homozygotes, Aliskiren 75 mg
[9] = Ren CC homozygotes, Aliskiren 150 mg
[10] = Ren CC homozygotes, Aliskiren 300 mg
[11] = Ren T allele carriers, Aliskiren 37.5 mg
[12] = Ren T allele carriers, Aliskiren 75 mg
[13] = Ren T allele carriers, Aliskiren 150 mg
[14] = Ren T allele carriers, Aliskiren 300 mg

concentration at 4 weeks ([3]; 37.5 mg, Ren CC homozygotes, Aliskiren 37.5 mg): 3.1 ng/mL | concentration at 4 weeks ([3]; 37.5 mg, Ren T allele carriers, Aliskiren 37.5 mg): 2.4 ng/mL | concentration at 4 weeks ([3]; 75 mg, Ren CC homozygotes, Aliskiren 75 mg): 4.4 ng/mL | concentration at 4 weeks ([3]; 75 mg, Ren T allele carriers, Aliskiren 75 mg): 3.9 ng/mL | concentration at 4 weeks ([3]; 150 mg, Ren CC homozygotes, Aliskiren 150 mg): 11 ng/mL | concentration at 4 weeks ([3]; 150 mg, Ren T allele carriers, Aliskiren 150 mg): 7.1 ng/mL | concentration at 4 weeks ([3]; 300 mg, Ren CC homozygotes, Aliskiren 300 mg): 31.9 ng/mL | concentration at 4 weeks ([3]; 300 mg, Ren T allele carriers, Aliskiren 300 mg): 20.5 ng/mL | Plasma aliskiren on treatment (trough) ([4]; Ren CC homozygotes): 31.5 (70.3, 13.5) ng/ml | Plasma aliskiren on treatment (trough) ([4]; Ren T allele carriers): 20.5 (41.0, 17.0) ng/ml | Reduction of on treatment plasma aliskiren levels amongst T allele carriers ([4]; T allele carriers versus CC homozygotes, trough, after 4 weeks of treatment): 20%-30% | PRA Percentage Change [5, 7]: −50.0 (−4.5, −62.7) % | PRA on treatment (trough) [5, 7]: 0.32 (0.12, 0.77) ng/ml/h | PRA Percentage Change [5, 8]: −61.7 (−32.7, −82.1) % | PRA on treatment (trough) [5, 8]: 0.16 (0.09, 0.46) ng/ml/h | PRA Percentage Change [5, 9]: −77.8 (−70.6, −84.8) % | PRA on treatment (trough) [5, 9]: 0.10 (0.06, 0.31) ng/ml/h | PRA Percentage Change [5, 10]: −82.5 (−69.9, −86.7) % | PRA on treatment (trough) [5, 10]: 0.17 (0.06, 0.42) ng/ml/h | PRA Percentage Change [5, 11]: −63.8 (−11.2, −77.9) % | PRA on treatment (trough) [5, 11]: 0.17 (0.06, 0.89) ng/ml/h | PRA Percentage Change [5, 12]: −54.3 (−44.4, −81.5) % | PRA on treatment (trough) [5, 12]: 0.42 (0.20, 0.59) ng/ml/h | PRA Percentage Change [5, 13]: −75.7 (−67.4, −82.1) % | PRA on treatment (trough) [5, 13]: 0.17 (0.12, 0.47) ng/ml/h | PRA Percentage Change [5, 14]: −82.5 (−69.9, −86.7) % | PRA on treatment (trough) [5, 14]: 0.18 (0.06, 0.51) ng/ml/h
Structure (SMILES): COCCCOc1cc(C[C@@H](C[C@H](N)[C@@H](O)C[C@H](C(=O)NCC(C)(C)C(N)=O)C(C)C)C(C)C)ccc1OC [Aliskiren]
Plasma renin levels in the presence of aliskiren [1]: 300 to 600 pg/mL | Relationship between dose and BP lowering ([2]; Aliskiren 37.5 to 300 mg daily): clear dose response relationship | BP lowering by −5312 C/T genotype [2]: BP lowering was greatest amongst CC homozygotes; also recorded: amongst CC homozygotes of the −5312 C/T variant | Effect of therapy on PRA [6]: suppressed PRA

Structure (SMILES): CCCCc1nc(Cl)c(CO)n1Cc1ccc(-c2ccccc2-c2nn[nH]n2)cc1 [Losartan]
BP lowering by −5312 C/T genotype [2]: greatest with Losartan 100 mg daily amongst T allele carriers; also recorded: amongst T allele carriers of the −5312 C/T variant | PRA Percentage Change ([6]; Ren CC homozygotes): 110.32 (15.4, 262.5) % | PRA on treatment (trough) ([6]; Ren CC homozygotes): 1.65 (0.60, 3.20) ng/ml/h | PRA Percentage Change ([6]; Ren T allele carriers): 97.6 (22.2, 363.8) % | PRA on treatment (trough) ([6]; Ren T allele carriers): 1.80 (0.65, 3.30) ng/ml/h | Effect of therapy on PRA [6]: increased PRA levels
